US9567302B2, “Carbamate compounds and of making and using same” (Abide Therapeutics, Inc., priority 2012, dated 2017)

Assays:
Format in all cases: biochemical
ABHD6 [1] = target: T1, ABHD6 (Mus musculus, UniProt Q8R2Y0); assay: In vitro competitive ABPP, % inhibition at fixed concentration, ABHD6; set-up: from tissue
T1 sequence (Q8R2Y0 1-336): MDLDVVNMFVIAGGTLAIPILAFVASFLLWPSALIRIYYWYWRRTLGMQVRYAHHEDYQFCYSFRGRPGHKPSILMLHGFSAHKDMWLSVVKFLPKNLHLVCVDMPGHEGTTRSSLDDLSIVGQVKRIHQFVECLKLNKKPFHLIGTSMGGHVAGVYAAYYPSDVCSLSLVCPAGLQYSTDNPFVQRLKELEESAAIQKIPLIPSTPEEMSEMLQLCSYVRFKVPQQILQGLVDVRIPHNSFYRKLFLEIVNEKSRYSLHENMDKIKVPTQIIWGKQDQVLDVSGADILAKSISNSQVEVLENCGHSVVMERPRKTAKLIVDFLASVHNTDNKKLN
Method: (§1) In Vitro Competitive Activity-Based Protein Profiling.
(§2) Proteomes (mouse brain membrane fraction or cell lysates) (50 μL, 1.0 mg/ml total protein concentration) were preincubated with varying concentrations of inhibitors at 37° C. After 30 min, FP-Rh (1.0 μL, 50 μM in DMSO) was added and the mixture was incubated for another 30 min at 37° C. Reactions were quenched with SDS loading buffer (50 μL—4×) and run on SDS-PAGE. Following gel imaging, serine hydrolase activity was determined by measuring fluorescent intensity of gel bands corresponding to MAGL, ABHD6 and FAAH using ImageJ 1.43u software.

FAAH [2] = target: T2, FAAH (Mus musculus, UniProt O08914); assay: In vitro competitive ABPP, % inhibition at fixed concentration, FAAH; set-up: from tissue
T2 sequence (O08914 1-579): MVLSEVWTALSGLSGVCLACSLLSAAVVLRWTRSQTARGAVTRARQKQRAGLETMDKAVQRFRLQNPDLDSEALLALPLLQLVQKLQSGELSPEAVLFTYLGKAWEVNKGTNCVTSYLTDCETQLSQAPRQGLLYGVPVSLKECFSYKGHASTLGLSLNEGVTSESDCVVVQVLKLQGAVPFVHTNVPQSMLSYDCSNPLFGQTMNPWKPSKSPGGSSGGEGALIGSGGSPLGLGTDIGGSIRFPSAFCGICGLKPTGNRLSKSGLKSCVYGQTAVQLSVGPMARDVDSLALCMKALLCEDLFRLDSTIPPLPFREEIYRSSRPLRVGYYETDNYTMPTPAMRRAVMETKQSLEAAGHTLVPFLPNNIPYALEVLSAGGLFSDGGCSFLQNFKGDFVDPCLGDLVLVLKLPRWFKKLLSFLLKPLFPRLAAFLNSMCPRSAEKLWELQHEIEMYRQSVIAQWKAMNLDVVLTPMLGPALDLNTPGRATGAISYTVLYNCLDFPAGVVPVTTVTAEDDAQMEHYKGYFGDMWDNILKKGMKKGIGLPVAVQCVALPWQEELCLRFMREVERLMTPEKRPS
Method: as §1, §2

MAGL [3] = target: T3, MAGL (Mus musculus, UniProt O35678); assay: In vitro competitive ABPP, % inhibition at fixed concentration, MAGL; set-up: from tissue
T3 sequence (O35678 1-303): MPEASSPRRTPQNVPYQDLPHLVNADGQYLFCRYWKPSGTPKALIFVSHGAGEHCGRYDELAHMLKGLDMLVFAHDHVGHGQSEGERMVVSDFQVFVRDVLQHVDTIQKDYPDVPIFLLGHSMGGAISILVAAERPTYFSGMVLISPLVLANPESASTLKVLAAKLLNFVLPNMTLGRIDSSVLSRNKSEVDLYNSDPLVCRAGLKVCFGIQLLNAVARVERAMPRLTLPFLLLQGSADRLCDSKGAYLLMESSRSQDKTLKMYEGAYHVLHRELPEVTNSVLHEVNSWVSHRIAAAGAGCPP
Method: as §1, §2

ABHD6 [4] = target: T1, ABHD6; assay: In vitro competitive activity-based protein profiling (FP-Rh), mouse ABHD6; set-up: from tissue; host or cells: mouse brain membrane fraction; conditions: Table 2, mouse proteome, 30 min preincubation at 37° C.
Method: as §1
(§3) Proteomes (mouse brain membrane fraction or cell lysates) (50 μL, 1.0 mg/ml total protein concentration) were preincubated with varying concentrations of inhibitors at 37° C. After 30 min, FP-Rh (1.0 μL, 50 μM in DMSO) was added and the mixture was incubated for another 30 min at 37° C. Reactions were quenched with SDS loading buffer (50 μL—4×) and run on SDS-PAGE.

FAAH [5] = target: T2, FAAH; assay: In vitro competitive activity-based protein profiling (FP-Rh), mouse FAAH; set-up: from tissue; host or cells: mouse brain membrane fraction; conditions: Table 2, mouse proteome, 30 min preincubation at 37° C.
Method: as §1, §3

MAGL [6] = target: T3, MAGL; assay: In vitro competitive activity-based protein profiling (FP-Rh), mouse MAGL; set-up: from tissue; host or cells: mouse brain membrane fraction; conditions: Table 2, mouse proteome, 30 min preincubation at 37° C.
Method: as §1, §3

SMILES	inhibition at 1 µM (ABHD6 [1]) [%]	inhibition at 1 µM (FAAH [2]) [%]	inhibition at 1 µM (MAGL [3]) [%]	other results
CC(=O)N1CCN(C(=O)ON2C(=O)CCC2=O)CC1 [Example 51, 2,5-Dioxopyrrolidin-1-yl 4-acetylpiperazine-1-carboxylate]	–	–	–	inhibition at 10 µM (ABHD6 [1]): < 25%; inhibition at 10 µM (FAAH [2]): < 25%; inhibition at 10 µM (MAGL [3]): < 25%
O=C(ON1C(=O)CCC1=O)N1CCN(Cc2ccc(N3CCOCC3)cc2C(F)(F)F)CC1 [Example 76, 2,5-Dioxopyrrolidin-1-yl 4-{[4-(morpholin-4-yl)-2-(trifluoromethyl)phenyl]methyl}piperazine-1-carboxylate]	25 to 75	< 25	25 to 75	–
C[C@H]1CN(Cc2ccc(N3CCOCC3)cc2C(F)(F)F)CCN1C(=O)ON1C(=O)CCC1=O [Example 77, 2,5-Dioxopyrrolidin-1-yl (2S)-2-methyl-4-{[4-(morpholin-4-yl)-2-(trifluoromethyl)phenyl]methyl}piperazine-1-carboxylate]	25 to 75	< 25	25 to 75	–
C[C@@H]1CN(Cc2ccc(N3CCOCC3)cc2F)CCN1C(=O)ON1C(=O)CCC1=O [Example 79, 2,5-Dioxopyrrolidin-1-yl (2R)-4-{[2-fluoro-4-(morpholin-4-yl)phenyl]methyl}-2-methylpiperazine-1-carboxylate]	< 25	< 25	< 25	–
C[C@@H]1CN(Cc2ccc(N3CCOCC3)cc2C(F)(F)F)CCN1C(=O)ON1C(=O)CCC1=O [Example 80, 2,5-Dioxopyrrolidin-1-yl (2R)-2-methyl-4-{[4-(morpholin-4-yl)-2-(trifluoromethyl)phenyl]methyl}piperazine-1-carboxylate]	< 25	< 25	< 25	–
O=C(ON1C(=O)CCC1=O)N1CCN(Cc2c(Cl)cccc2N2CCOCC2)CC1 [Example 81, 2,5-Dioxopyrrolidin-1-yl 4-{[2-chloro-6-(morpholin-4-yl)phenyl]methyl}piperazine-1-carboxylate]	25 to 75	< 25	< 25	–
CC1(C)CN(Cc2ccc(N3CCOCC3)cc2C(F)(F)F)CCN1C(=O)ON1C(=O)CCC1=O [Example 86, 2,5-Dioxopyrrolidin-1-yl 2,2-dimethyl-4-{[4-(morpholin-4-yl)-2-(trifluoromethyl)phenyl]methyl}piperazine-1-carboxylate]	< 25	< 25	< 25	–
CC1(C)CN(Cc2ccc(N3CCOCC3)cc2OC(F)(F)F)CCN1C(=O)ON1C(=O)CCC1=O [Example 87, 2,5-Dioxopyrrolidin-1-yl 2,2-dimethyl-4-{[4-(morpholin-4-yl)-2-(trifluoromethoxy)phenyl]methyl}piperazine-1-carboxylate]	< 25	< 25	< 25	–
C[C@H]1CN(Cc2ccc(N3CCOCC3)cc2F)CCN1C(=O)ON1C(=O)CCC1=O [Example 88, 2,5-Dioxopyrrolidin-1-yl (2S)-4-{[2-fluoro-4-(morpholin-4-yl)phenyl]methyl}-2-methylpiperazine-1-carboxylate]	25 to 75	< 25	25 to 75	–
C[C@H]1CN(Cc2ccc(N3CCOCC3)cc2Cl)CCN1C(=O)ON1C(=O)CCC1=O [Example 89, 2,5-Dioxopyrrolidin-1-yl (2S)-4-{[2-chloro-4-(morpholin-4-yl)phenyl]methyl}-2-methylpiperazine-1-carboxylate]	25 to 75	< 25	25 to 75	–
C[C@H]1CN(Cc2ccc(N3CCOCC3)cc2OC(F)(F)F)CCN1C(=O)ON1C(=O)CCC1=O [Example 90, 2,5-Dioxopyrrolidin-1-yl (2S)-2-methyl-4-{[4-(morpholin-4-yl)-2-(trifluoromethoxy)phenyl]methyl}piperazine-1-carboxylate]	25 to 75	< 25	25 to 75	–
C[C@@H]1CN(Cc2ccc(N3CCOCC3)cc2Cl)CCN1C(=O)ON1C(=O)CCC1=O [Example 96, 2,5-Dioxopyrrolidin-1-yl (2R)-4-{[2-chloro-4-(morpholin-4-yl)phenyl]methyl}-2-methylpiperazine-1-carboxylate]	< 25	< 25	< 25	–
O=C(ON1C(=O)CCC1=O)N1CCN(Cc2ccc(N3CCCC3)cc2)CC1 [Example 99, 2,5-Dioxopyrrolidin-1-yl 4-(4-(pyrrolidin-1-yl)benzyl)piperazine-1-carboxylate]	25 to 75	< 25	25 to 75	–
O=C(ON1C(=O)CCC1=O)N1CCN(Cc2ccc(N3CCOCC3)cc2)CC1 [Example 100, 2,5-Dioxopyrrolidin-1-yl 4-(4-morpholinobenzyl)piperazine-1-carboxylate]	< 25	< 25	< 25	–
O=C(ON1C(=O)CCC1=O)N1CCN(Cc2ccc(N3CCOCC3)cc2OC(F)(F)F)CC1 [Example 102, 2,5-Dioxopyrrolidin-1-yl 4-{[4-(morpholin-4-yl)-2-(trifluoromethoxy)phenyl]methyl}piperazine-1-carboxylate]	25 to 75	< 25	> 75	–
C[C@@H]1CN(Cc2ccc(N3CCOCC3)cc2OC(F)(F)F)CCN1C(=O)ON1C(=O)CCC1=O [Example 103, 2,5-Dioxopyrrolidin-1-yl (2R)-2-methyl-4-{[4-(morpholin-4-yl)-2-(trifluoromethoxy)phenyl]methyl}piperazine-1-carboxylate]	< 25	< 25	< 25	–
CS(=O)(=O)N1CCN(c2cc(Cl)ccc2CN2CCN(C(=O)ON3C(=O)CCC3=O)CC2)CC1 [Example 110, 2,5-Dioxopyrrolidin-1-yl 4-{[4-chloro-2-(4-methanesulfonylpiperazin-1-yl)phenyl]methyl}piperazine-1-carboxylate]	25 to 75	< 25	25 to 75	–
O=C(ON1C(=O)CCC1=O)N1CCN(Cc2ccc(Cl)cc2N2CCC3(CCNC3=O)CC2)CC1 [Example 111, 2,5-Dioxopyrrolidin-1-yl 4-[(4-chloro-2-{1-oxo-2,8-diazaspiro[4.51]decan-8-yl}phenyl)methyl]piperazine-1-carboxylate]	25 to 75	< 25	25 to 75	–
O=C(ON1C(=O)CCC1=O)N1CCN(Cc2ccc(Cl)cc2N2CCC2)CC1 [Example 112, 2,5-Dioxopyrrolidin-1-yl 4-{[2-(azetidin-1-yl)-4-chlorophenyl]methyl}piperazine-1-carboxylate]	25 to 75	< 25	> 75	–
O=C(ON1C(=O)CCC1=O)N1CCN(Cc2ccc(-c3ccccc3)cc2C(=O)N2CCCC2)CC1 [Example 191, 2,5-Dioxopyrrolidin-1-yl 4-{[4-phenyl-2-(pyrrolidine-1-carbonyl)phenyl]methyl}piperazine-1-carboxylate]	–	–	–	IC50 (ABHD6 [4]): 1000 to 10000 nM; IC50 (FAAH [5]): > 10000 nM; IC50 (MAGL [6]): 100 to 1000 nM
